Conditions: 100 kPa, Liquid; for viscosity: Falling or rolling sphere viscometry; for mass density: Vibrating tube method

CCn1cc[n+](C)c1.[Cl-].[Cl][Al]([Cl])[Cl] [1-ethyl-3-methyl-1H-imidazolium tetrachloroaluminate]
Conditions | mass density [kg/m3] | viscosity [mPa·s]
293.15 K | 1299.32 | 20.62
303.15 K | 1291.13 | 15.69
313.15 K | 1283.05 | 12.31
323.15 K | 1275.03 | 9.952
333.15 K | 1267.1 | 8.214
343.15 K | 1259.22 | 6.927
353.15 K | 1251.41 | 5.945
